Experimental data as given in patent US6358885B1, “Substituted phenylheterocyclic herbicides” (Mississippi State University, priority 1992, dated 2002).

How the values were obtained:
Assay in all cases: Test B preemergence/postemergence greenhouse plant response rating 0 to 10
[1] = system: barley; format: in vivo, Hordeum vulgare; conditions: for Plant response rating (0 to 10 scale), Barley: Rate 100 g/ha; for Plant response rating, Barley: Rate 400 g/ha, 0 to 10 scale
How it was run: (§1)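 Planted seeds are treated preemergence with compound dissolved in a non-phytotoxic solvent, while postemergence applications go onto plants of two to eighteen cm. Plants stay in the greenhouse twelve to sixteen days and are then rated visually relative to controls.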

[2] = system: barnyardgrass; format: in vivo, Echinochloa crus-galli; conditions: for Plant response rating (0 to 10 scale), Barnyardgrass: Rate 100 g/ha; for Plant response rating, Barnyardgrass: Rate 400 g/ha, 0 to 10 scale
How it was run: as §1

[3] = system: bedstraw; format: in vivo, Galium aparine; conditions: for Plant response rating (0 to 10 scale), Bedstraw: Rate 100 g/ha; for Plant response rating, Bedstraw: Rate 400 g/ha, 0 to 10 scale
How it was run: as §1

[4] = system: blackgrass; format: in vivo, Alopecurus myosuroides; conditions: for Plant response rating (0 to 10 scale), Blackgrass: Rate 100 g/ha; for Plant response rating, Blackgrass: Rate 400 g/ha, 0 to 10 scale
How it was run: as §1

[5] = system: cheatgrass; format: in vivo, Bromus secalinus; conditions: for Plant response rating (0 to 10 scale), Cheatgrass: Rate 100 g/ha; for Plant response rating, Cheatgrass: Rate 400 g/ha, 0 to 10 scale
How it was run: as §1

[6] = system: chickweed; format: in vivo, Stellaria media; conditions: for Plant response rating (0 to 10 scale), Chickweed: Rate 100 g/ha; for Plant response rating, Chickweed: Rate 400 g/ha, 0 to 10 scale
How it was run: as §1

[7] = system: cocklebur; format: in vivo, Xanthium pensylvanicum; conditions: for Plant response rating (0 to 10 scale), Cocklebur: Rate 100 g/ha; for Plant response rating, Cocklebur: Rate 400 g/ha, 0 to 10 scale
How it was run: as §1

[8] = system: corn; format: in vivo, Zea mays; conditions: for Plant response rating (0 to 10 scale), Corn: Rate 100 g/ha; for Plant response rating, Corn: Rate 400 g/ha, 0 to 10 scale
How it was run: as §1

[9] = system: cotton; format: in vivo, Gossypium hirsutum; conditions: for Plant response rating (0 to 10 scale), Cotton: Rate 100 g/ha; for Plant response rating, Cotton: Rate 400 g/ha, 0 to 10 scale
How it was run: as §1

[10] = system: crabgrass; format: in vivo, Digitaria spp.; conditions: for Plant response rating (0 to 10 scale), Crabgrass: Rate 100 g/ha; for Plant response rating, Crabgrass: Rate 400 g/ha, 0 to 10 scale
How it was run: as §1

[11] = system: giant foxtail; format: in vivo, Setaria faberii; conditions: for Plant response rating (0 to 10 scale), Giant foxtail: Rate 100 g/ha; for Plant response rating, Giant foxtail: Rate 400 g/ha, 0 to 10 scale
How it was run: as §1

[12] = system: lambsquarters; format: in vivo, Chenopodium album; conditions: for Plant response rating (0 to 10 scale), Lambsquarter: Rate 100 g/ha; for Plant response rating, Lambsquarter: Rate 400 g/ha, 0 to 10 scale
How it was run: as §1

[13] = system: morningglory; format: in vivo, Ipomoea hederacea; conditions: for Plant response rating (0 to 10 scale), Morningglory: Rate 100 g/ha; for Plant response rating, Morningglory: Rate 400 g/ha, 0 to 10 scale
How it was run: as §1

[14] = system: rape; format: in vivo, Brassica napus; conditions: for Plant response rating (0 to 10 scale), Rape: Rate 100 g/ha; for Plant response rating, Rape: Rate 400 g/ha, 0 to 10 scale
How it was run: as §1

[15] = system: rice; format: in vivo, Oryza sativa; conditions: for Plant response rating (0 to 10 scale), Rice: Rate 100 g/ha; for Plant response rating, Rice: Rate 400 g/ha, 0 to 10 scale
How it was run: as §1

[16] = system: sorghum; format: in vivo, Sorghum bicolor; conditions: for Plant response rating (0 to 10 scale), Sorghum: Rate 100 g/ha; for Plant response rating, Sorghum: Rate 400 g/ha, 0 to 10 scale
How it was run: as §1

[17] = system: soybean; format: in vivo, Glycine max; conditions: for Plant response rating (0 to 10 scale), Soybean: Rate 100 g/ha; for Plant response rating, Soybean: Rate 400 g/ha, 0 to 10 scale
How it was run: as §1

[18] = system: sugar beet; format: in vivo, Beta vulgaris; conditions: for Plant response rating (0 to 10 scale), Sugar beet: Rate 100 g/ha; for Plant response rating, Sugar beet: Rate 400 g/ha, 0 to 10 scale
How it was run: as §1

[19] = system: velvetleaf; format: in vivo, Abutilon theophrasti; conditions: for Plant response rating (0 to 10 scale), Velvetleaf: Rate 100 g/ha; for Plant response rating, Velvetleaf: Rate 400 g/ha, 0 to 10 scale
How it was run: as §1

[20] = system: wheat; format: in vivo, Triticum aestivum; conditions: for Plant response rating (0 to 10 scale), Wheat: Rate 100 g/ha; for Plant response rating, Wheat: Rate 400 g/ha, 0 to 10 scale
How it was run: as §1

[21] = system: wild buckwheat; format: in vivo, Polygonum convolvulus; conditions: for Plant response rating (0 to 10 scale), Wild buckwheat: Rate 100 g/ha; for Plant response rating, Wild buckwheat: Rate 400 g/ha, 0 to 10 scale
How it was run: as §1

[22] = system: wild oat; format: in vivo, Avena fatua; conditions: for Plant response rating (0 to 10 scale), Wild oat: Rate 100 g/ha; for Plant response rating, Wild oat: Rate 400 g/ha, 0 to 10 scale
How it was run: as §1

[23] = system: purple nutsedge; format: in vivo, Cyperus rotundus; conditions: for Plant response rating (0 to 10 scale), Nutsedge: Rate 100 g/ha; for Plant response rating, Nutsedge: Rate 400 g/ha, 0 to 10 scale
How it was run: as §1

## Fc1ccc(-c2nc3n(c2Br)CCCC3)c(F)c1 [Compound 7]
[1]; POSTEMERGENCE
  Plant response rating (0 to 10 scale), Barley: 2
  Plant response rating, Barley: 3
[1]; PREEMERGENCE
  Plant response rating (0 to 10 scale), Barley: 0
  Plant response rating, Barley: 0
[2]; POSTEMERGENCE
  Plant response rating (0 to 10 scale), Barnyardgrass: 4
  Plant response rating, Barnyardgrass: 6
[2]; PREEMERGENCE
  Plant response rating (0 to 10 scale), Barnyardgrass: 1
  Plant response rating, Barnyardgrass: 2
[3]; POSTEMERGENCE
  Plant response rating (0 to 10 scale), Bedstraw: 4
  Plant response rating, Bedstraw: 6
[3]; PREEMERGENCE
  Plant response rating (0 to 10 scale), Bedstraw: 0
  Plant response rating, Bedstraw: 2
[4]; POSTEMERGENCE
  Plant response rating (0 to 10 scale), Blackgrass: 3
  Plant response rating, Blackgrass: 4
[4]; PREEMERGENCE
  Plant response rating (0 to 10 scale), Blackgrass: 0
  Plant response rating, Blackgrass: 2
[5]; POSTEMERGENCE
  Plant response rating (0 to 10 scale), Cheatgrass: 3
  Plant response rating, Cheatgrass: 4
[5]; PREEMERGENCE
  Plant response rating (0 to 10 scale), Cheatgrass: 0
  Plant response rating, Cheatgrass: 0
[6]; POSTEMERGENCE
  Plant response rating (0 to 10 scale), Chickweed: 3
  Plant response rating, Chickweed: 3
[6]; PREEMERGENCE
  Plant response rating (0 to 10 scale), Chickweed: 0
  Plant response rating, Chickweed: 3
[7]; POSTEMERGENCE
  Plant response rating (0 to 10 scale), Cocklebur: 7
  Plant response rating, Cocklebur: 8
[7]; PREEMERGENCE
  Plant response rating (0 to 10 scale), Cocklebur: 0
  Plant response rating, Cocklebur: 0
[8]; POSTEMERGENCE
  Plant response rating (0 to 10 scale), Corn: 3
  Plant response rating, Corn: 4
[8]; PREEMERGENCE
  Plant response rating (0 to 10 scale), Corn: 0
  Plant response rating, Corn: 0
[9]; POSTEMERGENCE
  Plant response rating (0 to 10 scale), Cotton: 9
  Plant response rating, Cotton: 10
[9]; PREEMERGENCE
  Plant response rating (0 to 10 scale), Cotton: 0
  Plant response rating, Cotton: 0
[10]; POSTEMERGENCE
  Plant response rating (0 to 10 scale), Crabgrass: 4
  Plant response rating, Crabgrass: 4
[10]; PREEMERGENCE
  Plant response rating (0 to 10 scale), Crabgrass: 2
  Plant response rating, Crabgrass: 6
[11]; POSTEMERGENCE
  Plant response rating (0 to 10 scale), Giant foxtail: 5
  Plant response rating, Giant foxtail: 5
[11]; PREEMERGENCE
  Plant response rating (0 to 10 scale), Giant foxtail: 3
  Plant response rating, Giant foxtail: 4
[12]; POSTEMERGENCE
  Plant response rating (0 to 10 scale), Lambsquarter: 8
  Plant response rating, Lambsquarter: 9
[12]; PREEMERGENCE
  Plant response rating (0 to 10 scale), Lambsquarter: 0
  Plant response rating, Lambsquarter: 6
[13]; POSTEMERGENCE
  Plant response rating (0 to 10 scale), Morningglory: 8
  Plant response rating, Morningglory: 9
[13]; PREEMERGENCE
  Plant response rating (0 to 10 scale), Morningglory: 0
  Plant response rating, Morningglory: 0
[14]; POSTEMERGENCE
  Plant response rating (0 to 10 scale), Rape: 5
  Plant response rating, Rape: 7
[14]; PREEMERGENCE
  Plant response rating (0 to 10 scale), Rape: 0
  Plant response rating, Rape: 0
[15]; POSTEMERGENCE
  Plant response rating (0 to 10 scale), Rice: 5
  Plant response rating, Rice: 5
[15]; PREEMERGENCE
  Plant response rating (0 to 10 scale), Rice: 0
  Plant response rating, Rice: 0
[16]; POSTEMERGENCE
  Plant response rating (0 to 10 scale), Sorghum: 5
  Plant response rating, Sorghum: 6
[16]; PREEMERGENCE
  Plant response rating (0 to 10 scale), Sorghum: 0
  Plant response rating, Sorghum: 0
[17]; POSTEMERGENCE
  Plant response rating (0 to 10 scale), Soybean: 8
  Plant response rating, Soybean: 8
[17]; PREEMERGENCE
  Plant response rating (0 to 10 scale), Soybean: 0
  Plant response rating, Soybean: 0
[18]; POSTEMERGENCE
  Plant response rating (0 to 10 scale), Sugar beet: 9
  Plant response rating, Sugar beet: 10
[18]; PREEMERGENCE
  Plant response rating (0 to 10 scale), Sugar beet: 0
  Plant response rating, Sugar beet: 0
[19]; POSTEMERGENCE
  Plant response rating (0 to 10 scale), Velvetleaf: 7
  Plant response rating, Velvetleaf: 9
[19]; PREEMERGENCE
  Plant response rating (0 to 10 scale), Velvetleaf: 1
  Plant response rating, Velvetleaf: 5
[20]; POSTEMERGENCE
  Plant response rating (0 to 10 scale), Wheat: 3
  Plant response rating, Wheat: 5
[20]; PREEMERGENCE
  Plant response rating (0 to 10 scale), Wheat: 0
  Plant response rating, Wheat: 0
[21]; POSTEMERGENCE
  Plant response rating (0 to 10 scale), Wild buckwheat: 9
  Plant response rating, Wild buckwheat: 10
[21]; PREEMERGENCE
  Plant response rating (0 to 10 scale), Wild buckwheat: 0
  Plant response rating, Wild buckwheat: 3
[22]; POSTEMERGENCE
  Plant response rating (0 to 10 scale), Wild oat: 2
  Plant response rating, Wild oat: 3
[22]; PREEMERGENCE
  Plant response rating (0 to 10 scale), Wild oat: 0
  Plant response rating, Wild oat: 0
[23]; POSTEMERGENCE
  Plant response rating (0 to 10 scale), Nutsedge: 1
  Plant response rating, Nutsedge: 2
[23]; PREEMERGENCE
  Plant response rating (0 to 10 scale), Nutsedge: 0
  Plant response rating, Nutsedge: 2
